For one assay, the target named is T1, recombinant CD73 (Homo sapiens, UniProt P21589).
T1 construct: purchased R&D Systems 5795-EN-010
T1 sequence (P21589 27-547 limits assumed): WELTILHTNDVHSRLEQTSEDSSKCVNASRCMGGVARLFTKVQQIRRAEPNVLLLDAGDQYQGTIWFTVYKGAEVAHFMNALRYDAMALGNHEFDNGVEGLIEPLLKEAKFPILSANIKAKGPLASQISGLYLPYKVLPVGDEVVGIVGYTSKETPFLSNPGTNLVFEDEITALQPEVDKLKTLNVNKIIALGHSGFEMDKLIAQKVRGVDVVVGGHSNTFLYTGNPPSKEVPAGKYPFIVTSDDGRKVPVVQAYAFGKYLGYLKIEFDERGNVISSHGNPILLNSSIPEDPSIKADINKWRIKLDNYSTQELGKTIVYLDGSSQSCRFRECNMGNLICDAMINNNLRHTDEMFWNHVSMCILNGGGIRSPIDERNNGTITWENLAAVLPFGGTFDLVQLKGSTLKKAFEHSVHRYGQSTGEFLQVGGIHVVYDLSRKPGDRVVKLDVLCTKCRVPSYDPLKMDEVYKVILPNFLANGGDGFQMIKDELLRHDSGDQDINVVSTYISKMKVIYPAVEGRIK
In words: Assay 1: Inhibition of the CD73 Enzyme In Vitro.
Details: not given
Format: biochemical. The protocol: Serial dilutions of test compounds were incubated with recombinant CD73 and AMP in reaction buffer (25 mM Tris HCl pH7.5, 5 mM MgCl2, 50 mM NaCl, 0.25 mM DTT, 0.005% Triton X-100). The final reaction volume was 25 μL and the final concentrations of recombinant CD73 and AMP were 0.5 nM and 50 μM, respectively. […] After 5 minutes at room temperature, absorbance at 630 nm was determined on a microplate spectrophotometer. The concentration of inorganic phosphate was determined using a phosphate standard curve.
ND indicates not determined.
Turning to `COC(=O)c1ccccc1-c1ccc(CC(OC[C@H]2O[C@@H](n3cnc4c(N)nc(Cl)nc43)[C@H](O)[C@@H]2O)(C(=O)O)c2ccccc2)cc1` (stereo partly drawn) [Example 46, 2-(((2R,3S,4R,5R)-5-(6-amino-2-chloro-9H-purin-9-yl)-3,4-dihydroxytetrahydrofuran-2-yl)methoxy)-3-(2′-(methoxycarbonyl)-[1,1′-biphenyl]-4-yl)-2-phenylpropanoic acid], the half-inhibitory concentration (IC50) was above 50000 nM.

The assay is the same for the next values; noted with them: soluble recombinant CD73 0.5 nM, AMP 50 μM, 30 minutes at room temperature, Malachite Green, absorbance at 630 nm; read-out: Assay 1 CD73 IC50.
For the compound `Nc1nc(Cl)nc2c1ncn2[C@@H]1O[C@H](CO[C@@](Cc2ccc(-c3ccccc3)cc2)(C(=O)O)c2cscn2)[C@@H](O)[C@@H]1F` (single isomer, unassigned) [Example 9], the IC50 is 2640 nM. Regarding `Cc1nc([C@](Cc2ccc(-c3ccccc3)cc2)(OC[C@H]2O[C@@H](n3cnc4c(N)nc(Cl)nc43)[C@H](O)[C@@H]2O)C(=O)O)cs1` (single isomer, unassigned) [Example 28], the IC50 came to 90 nM. Still for that read-out and setting: in the case of `Nc1nc(Cl)nc2c1ncn2[C@@H]1O[C@H](CO[C@@](Cc2ccccc2)(C(=O)O)c2cocn2)[C@@H](O)[C@H]1O` (single isomer, unassigned) [Example 36] it was 6260 nM; in that of `Nc1nc(Cl)nc2c1ncn2[C@@H]1O[C@H](CO[C@](Cc2ccc(-c3ccccc3C(=O)O)cc2)(C(=O)O)c2ccccc2)[C@@H](O)[C@H]1O` (single isomer, unassigned) [Example 47], 4220 nM. As to `Cc1cc(C(Cc2ccccc2)(OC[C@H]2O[C@@H](n3cnc4c(N)nc(Cl)nc43)[C@H](O)[C@@H]2O)C(=O)O)no1` (mixture of isomers) [Example 37, 2-(((2R,3S,4R,5R)-5-(6-amino-2-chloro-9H-purin-9-yl)-3,4-dihydroxytetrahydrofuran-2-yl)methoxy)-2-(5-methylisoxazol-3-yl)-3-phenylpropanoic acid], the half-inhibitory concentration (IC50) stood at 8730 nM. In the case of `N#CCc1ccccc1-c1ccc(C[C@](OC[C@H]2O[C@@H](n3cnc4c(N)nc(Cl)nc43)[C@H](O)[C@@H]2O)(C(=O)O)c2cscn2)cc1` (single isomer, unassigned) [Example 5], the IC50 amounted to 502 nM. Take `Nc1nc(Cl)nc2c1ncn2[C@@H]1O[C@H](CO[C@@](Cc2ccc(-c3ccc(C(=O)O)cc3)cc2)(C(=O)O)c2cscn2)[C@@H](O)[C@H]1O` (single isomer, unassigned) [Example 3]: the IC50 came out at 1250 nM.

With `CCN(CC)C(=O)c1ccccc1-c1ccc(CC(OC[C@H]2O[C@@H](n3cnc4c(N)nc(Cl)nc43)[C@H](O)[C@@H]2O)(C(=O)O)c2cscn2)cc1` (mixture of isomers) [Example 45, 2-(((2R,3S,4R,5R)-5-(6-amino-2-chloro-9H-purin-9-yl)-3,4-dihydroxytetrahydrofuran-2-yl)methoxy)-3-(2′-(diethylcarbamoyl)-[1,1′-biphenyl]-4-yl)-2-(thiazol-4-yl)propanoic acid], the concentration for half-maximal inhibition (IC50) is 833 nM. With `Nc1nc(Cl)nc2c1ncn2[C@@H]1O[C@H](CO[C@](Cc2ccc(-c3ccccc3)cc2)(C(=O)O)c2cscn2)[C@@H](O)[C@@H]1F` (single isomer, unassigned) [Example 8], the IC50 turned out to be 241 nM. For `Nc1nc(Cl)nc2c1ncn2[C@@H]1O[C@H](CO[C@](Cc2ccc(-c3ccc[nH]c3=O)cc2)(C(=O)O)c2cscn2)[C@@H](O)[C@@H]1F` (single isomer, unassigned) [Example 21], the IC50 was 47 nM.

Regarding `Nc1nc(Cl)nc2c1ncn2[C@@H]1O[C@H](CO[C@](Cc2ccc(-c3ccc(C(=O)O)cc3)cc2)(C(=O)O)c2cscn2)[C@@H](O)[C@H]1O` (single isomer, unassigned) [Example 2], the half-maximal inhibitory concentration (IC50) was 64 nM. On to `Cc1nc([C@@](Cc2ccc(-c3ccccc3)cc2)(OC[C@H]2O[C@@H](n3cnc4c(N)nc(Cl)nc43)[C@H](O)[C@@H]2O)C(=O)O)cs1` (single isomer, unassigned) [Example 29], for which the IC50 amounted to 3220 nM. As for `Nc1nc(Cl)nc2c1ncn2[C@@H]1O[C@H](CO[C@@](Cc2ccc(C(=O)O)cc2)(C(=O)O)c2cscn2)[C@@H](O)[C@@H]1F` (single isomer, unassigned) [Example 16], the 50% inhibitory concentration (IC50) amounted to 4870 nM. With `COc1ncccc1-c1ccc(C[C@](OC[C@H]2O[C@@H](n3cnc4c(N)nc(Cl)nc43)[C@@H](F)[C@@H]2O)(C(=O)O)c2cscn2)cc1` (single isomer, unassigned) [Example 20], the 50% inhibitory concentration (IC50) was found to be 2750 nM. `Nc1nc(Cl)nc2c1ncn2[C@@H]1O[C@H](COC(Cc2ccc(-c3ccccc3)cc2)(C(=O)O)c2csc(Cl)n2)[C@@H](O)[C@H]1O` (mixture of isomers) [Example 27, 3-([1,1′-biphenyl]-4-yl)-2-(((2R,3S,4R,5R)-5-(6-amino-2-chloro-9H-purin-9-yl)-3,4-dihydroxytetrahydrofuran-2-yl)methoxy)-2-(2-chlorothiazol-4-yl)propanoic acid]: the IC50 worked out at 106 nM. `CCCNc1nc(Cl)nc2c1ncn2[C@@H]1O[C@H](COC(Cc2ccc(-c3ccccc3C(=O)O)cc2)(C(=O)O)c2cscn2)[C@@H](O)[C@@H]1F` (mixture of isomers) [Example 25, 4′-(2-carboxy-2-(((2R,3R,4S,5R)-5-(2-chloro-6-(propylamino)-9H-purin-9-yl)-4-fluoro-3-hydroxytetrahydrofuran-2-yl)methoxy)-2-(thiazol-4-yl)ethyl)-[1,1′-biphenyl]-2-carboxylic acid]: the IC50 came out at 382 nM. As to `N#CCc1ccccc1-c1ccc(C[C@@](OC[C@H]2O[C@@H](n3cnc4c(N)nc(Cl)nc43)[C@H](O)[C@@H]2O)(C(=O)O)c2cscn2)cc1` (single isomer, unassigned) [Example 4], the half-inhibitory concentration (IC50) turned out to be 35 nM. Still for that read-out and setting: in the case of `CS(=O)(=O)Nc1ccccc1-c1ccc(C[C@](OC[C@H]2O[C@@H](n3cnc4c(N)nc(Cl)nc43)[C@H](O)[C@@H]2O)(C(=O)O)c2cscn2)cc1` (single isomer, unassigned) [Example 42] it was 904 nM; in that of `COc1cccc(CO)c1-c1ccc(C[C@](OC[C@H]2O[C@@H](n3cnc4c(N)nc(Cl)nc43)[C@H](O)[C@@H]2O)(C(=O)O)c2cscn2)cc1` (single isomer, unassigned) [Example 40], 2230 nM.

With `Nc1nc(Cl)nc2c1ncn2[C@@H]1O[C@H](CO[C@](Cc2ccc(-c3ccccc3OC(F)(F)F)cc2)(C(=O)O)c2cscn2)[C@@H](O)[C@H]1O` (single isomer, unassigned) [Example 43], the half-maximal inhibitory concentration (IC50) was found to be 51 nM. `Nc1nc(Cl)nc2c1ncn2[C@@H]1O[C@H](CO[C@@](Cc2ccc(-c3ccccc3C(=O)O)cc2)(C(=O)O)c2ccccc2)[C@@H](O)[C@H]1O` (single isomer, unassigned) [Example 48]: the IC50 was found to be 14100 nM.

Regarding `Nc1nc(Cl)nc2c1ncn2[C@@H]1O[C@H](CO[C@@](Cc2ccc(-c3ccccc3OC(F)(F)F)cc2)(C(=O)O)c2cscn2)[C@@H](O)[C@H]1O` (single isomer, unassigned) [Example 44], the IC50 stood at 365 nM.

(Values after US20220363709A1, “ECTONU[…] METHODS OF USE THEREOF” (priority 2019, published 2022).)
